Test results: ChEMBL document CHEMBL1130508, “Synthesis of 7-membered cyclic hydroxyguanidines: Novel HIV-1 protease inhibitors” (Bioorg Med Chem Lett, 1997)

Target: Human immunodeficiency virus type 1 protease (Human immunodeficiency virus 1, UniProt Q72874)
Experiment: The compound was evaluated for its inhibition constant against HIV-1 protease (HIV PR)

Structure (SMILES) | Ki
ON=C1N(Cc2ccccc2)[C@H](Cc2ccccc2)[C@H](O)[C@@H](O)[C@@H](Cc2ccccc2)N1Cc1ccccc1 | 42 nM
O[C@@H]1[C@@H](O)[C@@H](Cc2ccccc2)N(Cc2ccccc2)C(=NOCc2ccccc2)N(Cc2ccccc2)[C@@H]1Cc1ccccc1 | 3000 nM
